Assay results as given in ChEMBL document CHEMBL5042533, “Structural Optimization and Structure-Activity Relationship Studies of 6,6-Dimethyl-4-(phenylamino)-6H-pyrimido[5,4-b][1,4]oxazin-7(8H)-one Derivatives as A New Class of Potent Inhibitors of Pan-Trk and Their Drug-Resistant Mutants” (J Med Chem, 2022).
Active and inactive are the calls of the source. No cut-off for these calls is given here.

What was measured:
[1] = molecular target: T1, 1-phosphatidylinositol 4,5-bisphosphate phosphodiesterase gamma-1 (Homo sapiens) (UniProt P19174); experiment: Inhibition of PLCgamma1 phosphorylation in human KM12-luc cells incubated for 6 hrs by Western blot analysis; assay type: cell-based; conditions: dose 3-300 nM
T1 sequence (whole entry): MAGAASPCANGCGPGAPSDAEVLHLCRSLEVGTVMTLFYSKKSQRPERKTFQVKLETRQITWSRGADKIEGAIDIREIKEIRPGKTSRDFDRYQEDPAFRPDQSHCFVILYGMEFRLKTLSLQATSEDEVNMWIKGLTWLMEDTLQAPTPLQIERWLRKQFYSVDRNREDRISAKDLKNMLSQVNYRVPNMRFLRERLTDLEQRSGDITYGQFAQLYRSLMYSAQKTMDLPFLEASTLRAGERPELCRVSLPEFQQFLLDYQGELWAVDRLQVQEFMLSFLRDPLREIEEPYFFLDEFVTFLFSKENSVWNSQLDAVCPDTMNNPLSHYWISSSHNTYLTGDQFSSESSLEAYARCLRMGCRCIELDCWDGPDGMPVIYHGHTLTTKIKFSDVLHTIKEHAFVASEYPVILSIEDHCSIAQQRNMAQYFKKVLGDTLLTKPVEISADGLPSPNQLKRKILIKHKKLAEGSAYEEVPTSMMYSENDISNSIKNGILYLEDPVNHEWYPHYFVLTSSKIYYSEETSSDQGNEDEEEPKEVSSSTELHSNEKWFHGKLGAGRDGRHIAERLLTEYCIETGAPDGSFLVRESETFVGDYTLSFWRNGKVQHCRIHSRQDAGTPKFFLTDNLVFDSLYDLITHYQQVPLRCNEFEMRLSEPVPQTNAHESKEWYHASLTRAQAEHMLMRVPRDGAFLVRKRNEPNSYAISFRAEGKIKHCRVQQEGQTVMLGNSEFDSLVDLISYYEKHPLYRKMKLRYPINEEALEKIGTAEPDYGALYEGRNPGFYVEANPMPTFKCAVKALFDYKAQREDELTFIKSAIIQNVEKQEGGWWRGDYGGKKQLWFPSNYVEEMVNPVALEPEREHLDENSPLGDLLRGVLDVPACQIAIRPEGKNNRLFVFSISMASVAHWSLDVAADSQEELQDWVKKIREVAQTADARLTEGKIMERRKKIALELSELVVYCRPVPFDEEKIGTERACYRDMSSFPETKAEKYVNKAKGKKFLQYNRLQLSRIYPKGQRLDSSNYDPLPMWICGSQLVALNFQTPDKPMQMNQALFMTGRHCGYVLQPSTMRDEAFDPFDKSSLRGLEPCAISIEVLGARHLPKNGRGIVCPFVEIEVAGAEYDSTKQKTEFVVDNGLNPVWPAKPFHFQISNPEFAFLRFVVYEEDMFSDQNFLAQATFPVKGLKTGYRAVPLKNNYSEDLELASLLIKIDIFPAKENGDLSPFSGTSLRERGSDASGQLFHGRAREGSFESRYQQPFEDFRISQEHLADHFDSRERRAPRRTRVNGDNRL

BaF3 [2] = experiment: Antitumour activity against mouse BaF3 cells expressing TEL fused TrkA allografted in NOD-SCID mouse assessed as reduction in tumor volume administered intravenously once daily for 10 days and measured every 2 or 3 days; assay type: functional; conditions: dose 5-20 mg/kg, time 10.0 day
[3] = Toxicity in NOD-SCID mouse allografted with mouse BaF3 cells expressing TEL fused TrkA assessed as body weight loss at 5 to 20 mg/kg, iv measured every 2 or 3 days for 10 days; assay type: organism-based; conditions: in vivo, 240 h, dose 5-20 mg/kg, time 10 day
[4] = Toxicity in NOD-SCID mouse allografted with larotrectinib-resistant mouse BaF3 cells expressing TEL fused TrkC G623R mutant assessed as body weight loss at 5 to 20 mg/kg, iv measured every 2 or 3 days for 10 days; assay type: organism-based; conditions: in vivo, 240 h, dose 5-20 mg/kg, time 10 day
BaF3 [5] = experiment: cells; conditions: Mus musculus, BaF3, 72 h
Description: Cytotoxicity against mouse BaF3 cells expressing TEL fused TrkC G696C assessed as inhibition of cell growth incubated for 3 days by CCK-8 assay

For `Cc1cc(NC(=O)Nc2cc(C(C)(C)C)nn2-c2ccc(Cl)cc2)ccc1Nc1ncnc2c1OC(C)(C)C(=O)N2`, the inhibition [1] was “Active”, the Activity (BaF3 [2]) was “Dose-Dependent Effect” and the Activity [3] was “Non-Toxic”. The Activity [4] was “Non-Toxic” and the IC50 (BaF3 [5]) was 2 nM.
